Results reported in US20060069132A1, “Azolecarboxamide herbicides” (priority 2004, published 2006).

How the values were obtained:
[1] = tested on: rice; assay: Test B pre-/postemergence herbicide test; format: in vivo, Oryza sativa; conditions: preemergence
In short: (§1)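 Formulation: non-phytotoxic solvent mix with surfactant. Timing: preemergence on seed and postemergence on 2–18 cm plants, applied concurrently. Readout after 13–15 d greenhouse: visual 0–100 control rating against controls.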

[2] = tested on: large crabgrass; assay: Test A pre-/postemergence herbicide test; format: in vivo, Digitaria sanguinalis
In short: (§2)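 Pre: seeded sandy loam, directed soil spray, compound in non-phytotoxic solvent + surfactant. Post: 1–2-leaf plants (2–10 cm), sprayed to runoff. Greenhouse ~10 d; visual injury vs untreated, 0–100 scale.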

[3] = tested on: giant foxtail; assay: Test A pre-/postemergence herbicide test; format: in vivo, Setaria faberi
In short: as §2

[4] = tested on: velvetleaf; assay: Test A pre-/postemergence herbicide test; format: in vivo, Abutilon theophrasti
In short: as §2

[5] = tested on: velvetleaf; assay: Test B pre-/postemergence herbicide test; format: in vivo, Abutilon theophrasti; conditions: for Plant response rating, Velvetleaf: preemergence; for Velvetleaf plant response rating: postemergence, visual rating, scale 0 (no effect) to 100 (complete control)
In short: as §1

[6] = tested on: barnyardgrass; assay: Test A pre-/postemergence herbicide test; format: in vivo, Echinochloa crus-galli
In short: as §2

[7] = tested on: wheat; assay: Test B postemergence herbicide test; format: in vivo, Triticum aestivum; set-up: key to Wheat plant response rating: 0 = no effect, 100 = complete control; conditions: postemergence, 500 g ai/ha; visual rating, scale 0 (no effect) to 100 (complete control)
In short: (§3)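 Postemergence plants were sprayed with formulated test chemicals at 2 to 18 cm height (1- to 4-leaf stage); paddy species were grown to the 2-leaf stage. After 13 to 15 days in a greenhouse, injury was rated visually against untreated controls on a 0–100 scale (0 = no effect, 100 = complete control).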

[8] = tested on: corn; assay: Test B pre-/postemergence herbicide test; format: in vivo, Zea mays; conditions: for Plant response rating, Corn: preemergence; for Corn plant response rating: postemergence, visual rating, scale 0 (no effect) to 100 (complete control)
In short: as §1

[9] = tested on: giant foxtail; assay: Test B pre-/postemergence herbicide test; format: in vivo, Setaria faberi; conditions: for Plant response rating, Foxtail, Giant: preemergence; for Foxtail, Giant plant response rating: postemergence, visual rating, scale 0 (no effect) to 100 (complete control)
In short: as §1

[10] = tested on: Surinam grass; assay: Test B pre-/postemergence herbicide test; format: in vivo, Urochloa decumbens; conditions: for Plant response rating, Surinam Grass: preemergence; for Surinam Grass plant response rating: postemergence, visual rating, scale 0 (no effect) to 100 (complete control)
In short: as §1

[11] = tested on: pigweed; assay: Test B pre-/postemergence herbicide test; format: in vivo, Amaranthus retroflexus; conditions: for Plant response rating, Pigweed: preemergence; for Pigweed plant response rating: postemergence, visual rating, scale 0 (no effect) to 100 (complete control)
In short: as §1

[12] = tested on: rice; assay: Test B flooded paddy test; format: in vivo, Oryza sativa; conditions: 1000 g ai/ha, visual rating, scale 0 to 100 (0 no effect, 100 complete control), 13 to 15 days
In short: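 Scale 0–100: zero equals no visible effect, 100 complete control, judged by eye relative to controls. Timing: 13 to 15 days in greenhouse post-treatment. Growth stage at spraying: two leaves (paddy) or one to four leaves, 2–18 cm (postemergence).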

[13] = tested on: morningglory; assay: Test A pre-/postemergence herbicide test; format: in vivo, Ipomoea spp.
In short: as §2

[14] = tested on: redroot pigweed; assay: Test A pre-/postemergence herbicide test; format: in vivo, Amaranthus retroflexus
In short: as §2

[15] = tested on: ducksalad; assay: Test B flooded paddy test; format: in vivo, Heteranthera limosa; conditions: 1000 g ai/ha, visual rating, scale 0 to 100 (0 no effect, 100 complete control), 13 to 15 days
In short: (§4)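 Read-out: visual comparison with controls, scored 0 to 100, where 100 means complete control and 0 no effect. Formulated chemicals were applied postemergence to plants 2–18 cm tall (1- to 4-leaf), or to flooded-paddy plants at the 2-leaf stage, then held 13 to 15 days under glass.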

[16] = tested on: morningglory; assay: Test B pre-/postemergence herbicide test; format: in vivo, Ipomoea coccinea; conditions: for Plant response rating, Morningglory: preemergence; for Morningglory plant response rating: postemergence, visual rating, scale 0 (no effect) to 100 (complete control)
In short: (§5)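 Pre: seeds sown, then sprayed. Post: 1–4-leaf plants (2–18 cm) sprayed at the same time. Paddy: flooded, treated at 2-leaf stage. Formulation: non-phytotoxic solvent with surfactant. Greenhouse 13–15 days; visual 0–100 score relative to controls.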

[17] = tested on: small flower umbrella sedge; assay: Test B flooded paddy test; format: in vivo, Cyperus difformis; conditions: 1000 g ai/ha, visual rating, scale 0 to 100 (0 no effect, 100 complete control), 13 to 15 days
In short: as §4

[18] = tested on: lambsquarters; assay: Test B pre-/postemergence herbicide test; format: in vivo, Chenopodium album; conditions: for Plant response rating, Lambsquarters: preemergence; for Lambsquarters plant response rating: postemergence, visual rating, scale 0 (no effect) to 100 (complete control)
In short: as §1

[19] = tested on: blackgrass; assay: Test B postemergence herbicide test; format: in vivo, Alopecurus myosuroides; conditions: postemergence, visual rating, scale 0 (no effect) to 100 (complete control)
In short: as §4

[20] = tested on: wild oat; assay: Test B postemergence herbicide test; format: in vivo, Avena fatua; conditions: postemergence, visual rating, scale 0 (no effect) to 100 (complete control)
In short: as §3

[21] = tested on: barnyardgrass; assay: Test B pre-/postemergence herbicide test; format: in vivo, Echinochloa crus-galli; conditions: for Plant response rating, Barnyardgrass: preemergence; for Barnyardgrass plant response rating: postemergence, visual rating, scale 0 (no effect) to 100 (complete control)
In short: as §5

[22] = tested on: large crabgrass; assay: Test B pre-/postemergence herbicide test; format: in vivo, Digitaria sanguinalis; conditions: for Plant response rating, Crabgrass, Large: preemergence; for Crabgrass, Large plant response rating: postemergence, visual rating, scale 0 (no effect) to 100 (complete control)
In short: as §1

[23] = tested on: cocklebur; assay: Test B pre-/postemergence herbicide test; format: in vivo, Xanthium strumarium; conditions: for Plant response rating, Cocklebur: preemergence; for Cocklebur plant response rating: postemergence, visual rating, scale 0 (no effect) to 100 (complete control)
In short: as §5

[24] = tested on: barnyardgrass; assay: Test B flooded paddy test; format: in vivo, Echinochloa crus-galli; conditions: 1000 g ai/ha, visual rating, scale 0 to 100 (0 no effect, 100 complete control), 13 to 15 days
In short: as §4

[25] = 500 g ai/ha, visual rating 0-100, 0 no effect, 100 complete control
[26] = 125 g ai/ha, 0 to 100 scale, 0 is no effect, 100 is complete control
[27] = Postemergence, 500 g ai/ha, 0 to 100 scale, 0 no effect, 100 complete control
[28] = Postemergence, 2000 g ai/ha, 0 to 100 scale, 0 no effect, 100 complete control
[29] = Preemergence, 500 g ai/ha, visual rating, 0 to 100 scale (0 no effect, 100 complete control)
[30] = Preemergence, 2000 g ai/ha, visual rating, 0 to 100 scale (0 no effect, 100 complete control)
[31] = preemergence, 500 g ai/ha, visual injury, 0 to 100 scale (0 no effect, 100 complete control)

Compound: CCNC(=O)c1cc(C)cc(NC(=O)c2cc(C(C)(C)C)nn2CC)n1 [Compound 150]
- Plant response rating, Rice [1, 25]: 40
- Plant response rating, Rice [1, 26]: 0
- Crabgrass, Large plant response rating [2, 27]: 15
- Plant response rating, Crabgrass, Large [2, 28]: 50
- Crabgrass, Large plant response rating [2, 29]: 25
- Crabgrass, Large plant response rating [2, 30]: 50
- Foxtail, Giant plant response rating [3, 27]: 20
- Plant response rating, Foxtail, Giant [3, 28]: 25
- Foxtail, Giant plant response rating [3, 29]: 15
- Foxtail, Giant plant response rating [3, 30]: 55
- Velvetleaf plant response rating [4, 27]: 25
- Plant response rating, Velvetleaf [4, 28]: 15
- Velvetleaf plant response rating [4, 30]: 50
- Velvetleaf plant response rating [4, 31]: 20
- Plant response rating, Velvetleaf [5, 25]: 10
- Velvetleaf plant response rating ([5]; 125 g ai/ha): 20
- Velvetleaf plant response rating ([5]; 500 g ai/ha): 60
- Plant response rating, Velvetleaf [5, 26]: 0
- Barnyardgrass plant response rating [6, 27]: 30
- Plant response rating, Barnyardgrass [6, 28]: 65
- Barnyardgrass plant response rating [6, 29]: 50
- Barnyardgrass plant response rating [6, 30]: 80
- Wheat plant response rating [7]: 10
- Plant response rating, Corn [8, 25]: 20
- Corn plant response rating ([8]; 125 g ai/ha): 10
- Corn plant response rating ([8]; 500 g ai/ha): 50
- Plant response rating, Corn [8, 26]: 0
- Plant response rating, Foxtail, Giant [9, 25]: 60
- Foxtail, Giant plant response rating ([9]; 125 g ai/ha): 0
- Foxtail, Giant plant response rating ([9]; 500 g ai/ha): 10
- Plant response rating, Foxtail, Giant [9, 26]: 0
- Plant response rating, Surinam Grass [10, 25]: 10
- Surinam Grass plant response rating ([10]; 125 g ai/ha): 10
- Surinam Grass plant response rating ([10]; 500 g ai/ha): 40
- Plant response rating, Surinam Grass [10, 26]: 10
- Plant response rating, Pigweed [11, 25]: 100
- Pigweed plant response rating ([11]; 125 g ai/ha): 70
- Pigweed plant response rating ([11]; 500 g ai/ha): 90
- Plant response rating, Pigweed [11, 26]: 70
- Rice plant response rating [12]: 40
- Morningglory plant response rating [13, 27]: 0
- Plant response rating, Morningglory [13, 28]: 10
- Morningglory plant response rating [13, 29]: 10
- Morningglory plant response rating [13, 30]: 35
- Pigweed plant response rating [14, 27]: 80
- Plant response rating, Pigweed [14, 28]: 75
- Pigweed plant response rating [14, 30]: 100
- Pigweed plant response rating [14, 31]: 75
- Ducksalad plant response rating [15]: 20
- Plant response rating, Morningglory [16, 25]: 20
- Morningglory plant response rating ([16]; 125 g ai/ha): 20
- Morningglory plant response rating ([16]; 500 g ai/ha): 40
- Plant response rating, Morningglory [16, 26]: 0
- Sedge, Umbrella plant response rating [17]: 50
- Plant response rating, Lambsquarters [18, 25]: 100
- Lambsquarters plant response rating ([18]; 125 g ai/ha): 50
- Lambsquarters plant response rating ([18]; 500 g ai/ha): 70
- Plant response rating, Lambsquarters [18, 26]: 0
- Blackgrass plant response rating ([19]; 125 g ai/ha): 0
- Blackgrass plant response rating ([19]; 500 g ai/ha): 10
- Oat, Wild plant response rating ([20]; 125 g ai/ha): 20
- Oat, Wild plant response rating ([20]; 500 g ai/ha): 20
- Plant response rating, Barnyardgrass [21, 25]: 80
- Barnyardgrass plant response rating ([21]; 125 g ai/ha): 10
- Barnyardgrass plant response rating ([21]; 500 g ai/ha): 50
- Plant response rating, Barnyardgrass [21, 26]: 30
- Plant response rating, Crabgrass, Large [22, 25]: 10
- Crabgrass, Large plant response rating ([22]; 125 g ai/ha): 10
- Crabgrass, Large plant response rating ([22]; 500 g ai/ha): 10
- Plant response rating, Crabgrass, Large [22, 26]: 0
- Plant response rating, Cocklebur [23, 25]: 0
- Cocklebur plant response rating ([23]; 125 g ai/ha): 60
- Cocklebur plant response rating ([23]; 500 g ai/ha): 80
- Plant response rating, Cocklebur [23, 26]: 0
- Barnyardgrass plant response rating [24]: 70
